Each compound was assayed on SF-268 (assay: cells). Settings: Homo sapiens, SF-268.
Type: functional, cell-based, Homo sapiens
Description: SANGER: Inhibition of human SF268 cell growth in a cell viability assay.

| SMILES | IC50 [nM] |
| --- | --- |
| NC(=O)c1cccc(-c2cc(Nc3ccc(OC(F)(F)F)cc3)ncn2)c1 | > 1280 |

Each compound was assayed on D283 Med (assay: cells). Settings: Homo sapiens, D283 Med.
Type: functional, cell-based, Homo sapiens
Description: SANGER: Inhibition of human D-283MED cell growth in a cell viability assay.

| SMILES | IC50 [nM] |
| --- | --- |
| NC(=O)c1cccc(-c2cc(Nc3ccc(OC(F)(F)F)cc3)ncn2)c1 | > 1280 |

Each compound was assayed on SK-NEP-1 (assay: cells). Settings: Homo sapiens, SK-NEP-1.
Type: functional, cell-based, Homo sapiens
Description: SANGER: Inhibition of human SK-NEP-1 cell growth in a cell viability assay.

| SMILES | IC50 [nM] |
| --- | --- |
| NC(=O)c1cccc(-c2cc(Nc3ccc(OC(F)(F)F)cc3)ncn2)c1 | > 1280 |

What follows are compounds tested on NCI-H1838 (assay: cells). Settings: Homo sapiens, NCI-H1838.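 Also: growth inhibition of NCI-H1838 cells, determined with a cell viability readout.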
Type: functional, cell-based, Homo sapiens
Description: SANGER: Inhibition of human NCI-H1838 cell growth in a cell viability assay.

| SMILES | IC50 [nM] |
| --- | --- |
| NC(=O)c1cccc(-c2cc(Nc3ccc(OC(F)(F)F)cc3)ncn2)c1 | > 1280 |

What follows are compounds tested on COLO-320-HSR (assay: cells). Settings: Homo sapiens, COLO-320-HSR.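 Also: growth inhibition of COLO-320-HSR cells, determined with a cell viability assay.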
Type: functional, cell-based, Homo sapiens
Description: SANGER: Inhibition of human COLO-320-HSR cell growth in a cell viability assay.

| SMILES | IC50 [nM] |
| --- | --- |
| NC(=O)c1cccc(-c2cc(Nc3ccc(OC(F)(F)F)cc3)ncn2)c1 | > 1280 |

The compounds below were run on KNS-42 (assay: cells). Settings: Homo sapiens.
Type: functional, cell-based
Description: SANGER: Inhibition of human KNS-42 cell growth in a cell viability assay.

| SMILES | IC50 [nM] |
| --- | --- |
| NC(=O)c1cccc(-c2cc(Nc3ccc(OC(F)(F)F)cc3)ncn2)c1 | > 1280 |

What follows are compounds tested on EW-18 (assay: cells). Settings: Homo sapiens, EW-18; read-out: IC50.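 Also: growth inhibition of EW-18 cells, read out by a cell viability assay.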
Type: functional, cell-based, Homo sapiens
Description: SANGER: Inhibition of human EW-18 cell growth in a cell viability assay.

| SMILES | IC50 [nM] |
| --- | --- |
| NC(=O)c1cccc(-c2cc(Nc3ccc(OC(F)(F)F)cc3)ncn2)c1 | > 1280 |

Each compound was assayed on SCH (assay: cells). Settings: Homo sapiens, SCH.
Type: functional, cell-based, Homo sapiens
Description: SANGER: Inhibition of human SCH cell growth in a cell viability assay.

| SMILES | IC50 [nM] |
| --- | --- |
| NC(=O)c1cccc(-c2cc(Nc3ccc(OC(F)(F)F)cc3)ncn2)c1 | > 1280 |

The compounds below were run on KINGS-1 (assay: cells). Settings: Homo sapiens, KINGS-1.
Type: functional, cell-based, Homo sapiens
Description: SANGER: Inhibition of human KINGS-1 cell growth in a cell viability assay.

| SMILES | IC50 [nM] |
| --- | --- |
| NC(=O)c1cccc(-c2cc(Nc3ccc(OC(F)(F)F)cc3)ncn2)c1 | > 1280 |

What follows are compounds tested on GCIY (assay: cells). Settings: Homo sapiens, GCIY.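 Also: growth inhibition of the human GCIY cell line, read out by a cell viability assay.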
Type: functional, cell-based, Homo sapiens
Description: SANGER: Inhibition of human GCIY cell growth in a cell viability assay.

| SMILES | IC50 [nM] |
| --- | --- |
| NC(=O)c1cccc(-c2cc(Nc3ccc(OC(F)(F)F)cc3)ncn2)c1 | > 1280 |

These compounds were tested on LU-139 (assay: cells). Settings: Homo sapiens, LU-139.
Type: functional, cell-based, Homo sapiens
Description: SANGER: Inhibition of human LU-139 cell growth in a cell viability assay.

| SMILES | IC50 [nM] |
| --- | --- |
| NC(=O)c1cccc(-c2cc(Nc3ccc(OC(F)(F)F)cc3)ncn2)c1 | > 1280 |

Each compound was assayed on NEC8 (assay: cells). Settings: Homo sapiens, NEC8.
Type: functional, cell-based, Homo sapiens
Description: SANGER: Inhibition of human NEC8 cell growth in a cell viability assay.

| SMILES | IC50 [nM] |
| --- | --- |
| NC(=O)c1cccc(-c2cc(Nc3ccc(OC(F)(F)F)cc3)ncn2)c1 | > 1280 |

What follows are compounds tested on EKVX (assay: cells). Settings: Homo sapiens, EKVX.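 Also: growth inhibition of human EKVX cells, read out with a cell viability assay.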
Type: functional, cell-based, Homo sapiens
Description: SANGER: Inhibition of human EKVX cell growth in a cell viability assay.

| SMILES | IC50 [nM] |
| --- | --- |
| NC(=O)c1cccc(-c2cc(Nc3ccc(OC(F)(F)F)cc3)ncn2)c1 | > 1280 |

What follows are compounds tested on SW872 (assay: cells). Settings: Homo sapiens, SW872.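 Also: growth inhibition of SW872 cells, read out by a viability assay.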
Type: functional, cell-based, Homo sapiens
Description: SANGER: Inhibition of human SW872 cell growth in a cell viability assay.

| SMILES | IC50 [nM] |
| --- | --- |
| NC(=O)c1cccc(-c2cc(Nc3ccc(OC(F)(F)F)cc3)ncn2)c1 | > 1280 |

These compounds were tested on TE-12 (assay: cells). Settings: Homo sapiens, TE-12.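 Also: growth inhibition of TE-12 cells, read out by a cell viability assay.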
Type: functional, cell-based, Homo sapiens
Description: SANGER: Inhibition of human TE-12 cell growth in a cell viability assay.

| SMILES | IC50 [nM] |
| --- | --- |
| NC(=O)c1cccc(-c2cc(Nc3ccc(OC(F)(F)F)cc3)ncn2)c1 | > 1280 |

Each compound was assayed on HAL-01 (assay: cells). Settings: Homo sapiens, HAL-01.
Type: functional, cell-based, Homo sapiens
Description: SANGER: Inhibition of human HAL-01 cell growth in a cell viability assay.

| SMILES | IC50 [nM] |
| --- | --- |
| NC(=O)c1cccc(-c2cc(Nc3ccc(OC(F)(F)F)cc3)ncn2)c1 | > 1280 |

The compounds below were run on MFM-223 (assay: cells). Settings: Homo sapiens, MFM-223.
Type: functional, cell-based, Homo sapiens
Description: SANGER: Inhibition of human MFM-223 cell growth in a cell viability assay.

| SMILES | IC50 [nM] |
| --- | --- |
| NC(=O)c1cccc(-c2cc(Nc3ccc(OC(F)(F)F)cc3)ncn2)c1 | > 1280 |

Each compound was assayed on COLO-829 (assay: cells). Settings: Homo sapiens, COLO-829.
Type: functional, cell-based, Homo sapiens
Description: SANGER: Inhibition of human COLO-829 cell growth in a cell viability assay.

| SMILES | IC50 [nM] |
| --- | --- |
| NC(=O)c1cccc(-c2cc(Nc3ccc(OC(F)(F)F)cc3)ncn2)c1 | > 1280 |

These compounds were tested on COLO-668 (assay: cells). Settings: Homo sapiens, COLO-668.
Type: functional, cell-based, Homo sapiens
Description: SANGER: Inhibition of human COLO-668 cell growth in a cell viability assay.

| SMILES | IC50 [nM] |
| --- | --- |
| NC(=O)c1cccc(-c2cc(Nc3ccc(OC(F)(F)F)cc3)ncn2)c1 | > 1280 |

What follows are compounds tested on SK-N-DZ (assay: cells). Settings: Homo sapiens, SK-N-DZ; read-out: IC50.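 Also: growth inhibition of the cancer cell line, read out through a viability assay.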
Type: functional, cell-based, Homo sapiens
Description: SANGER: Inhibition of human SK-N-DZ cell growth in a cell viability assay.

| SMILES | IC50 [nM] |
| --- | --- |
| NC(=O)c1cccc(-c2cc(Nc3ccc(OC(F)(F)F)cc3)ncn2)c1 | > 1280 |

These compounds were tested on CAS-1 (assay: cells). Settings: Homo sapiens, CAS-1.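 Also: growth inhibition of CAS-1 cells, measured with a cell viability assay.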
Type: functional, cell-based, Homo sapiens
Description: SANGER: Inhibition of human CAS-1 cell growth in a cell viability assay.

| SMILES | IC50 [nM] |
| --- | --- |
| NC(=O)c1cccc(-c2cc(Nc3ccc(OC(F)(F)F)cc3)ncn2)c1 | > 1280 |

Each compound was assayed on CW-2 (assay: cells). Settings: Homo sapiens, CW-2.
Type: functional, cell-based, Homo sapiens
Description: SANGER: Inhibition of human CW-2 cell growth in a cell viability assay.

| SMILES | IC50 [nM] |
| --- | --- |
| NC(=O)c1cccc(-c2cc(Nc3ccc(OC(F)(F)F)cc3)ncn2)c1 | > 1280 |

What follows are compounds tested on QIMR-WIL (assay: cells). Settings: Homo sapiens, QIMR-WIL.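 Also: growth inhibition of QIMR-WIL cells, read out with a cell viability assay.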
Type: functional, cell-based, Homo sapiens
Description: SANGER: Inhibition of human QIMR-WIL cell growth in a cell viability assay.

| SMILES | IC50 [nM] |
| --- | --- |
| NC(=O)c1cccc(-c2cc(Nc3ccc(OC(F)(F)F)cc3)ncn2)c1 | > 1280 |

These compounds were tested on HCC1187 (assay: cells). Settings: Homo sapiens, HCC1187.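 Also: growth inhibition of HCC1187 cells, read out with a cell viability assay.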
Type: functional, cell-based, Homo sapiens
Description: SANGER: Inhibition of human HCC1187 cell growth in a cell viability assay.

| SMILES | IC50 [nM] |
| --- | --- |
| NC(=O)c1cccc(-c2cc(Nc3ccc(OC(F)(F)F)cc3)ncn2)c1 | > 1280 |

These compounds were tested on CTV-1 (assay: cells). Settings: Homo sapiens, CTV-1.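 Also: growth inhibition of the cell line, read out with a cell viability assay.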
Type: functional, cell-based, Homo sapiens
Description: SANGER: Inhibition of human CTV-1 cell growth in a cell viability assay.

| SMILES | IC50 [nM] |
| --- | --- |
| NC(=O)c1cccc(-c2cc(Nc3ccc(OC(F)(F)F)cc3)ncn2)c1 | > 1280 |

What follows are compounds tested on K562 (assay: cells). Settings: Homo sapiens, K562.
Type: functional, cell-based, Homo sapiens
Description: SANGER: Inhibition of human K-562 cell growth in a cell viability assay.

| SMILES | IC50 [nM] |
| --- | --- |
| NC(=O)c1cccc(-c2cc(Nc3ccc(OC(F)(F)F)cc3)ncn2)c1 | 361 |

What follows are compounds tested on NB10 (assay: cells). Settings: Homo sapiens, NB10.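 Also: growth inhibition of NB10 cells, read out by a cell viability assay.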
Type: functional, cell-based, Homo sapiens
Description: SANGER: Inhibition of human NB10 cell growth in a cell viability assay.

| SMILES | IC50 [nM] |
| --- | --- |
| NC(=O)c1cccc(-c2cc(Nc3ccc(OC(F)(F)F)cc3)ncn2)c1 | > 1280 |

What follows are compounds tested on BV-173 (assay: cells). Settings: Homo sapiens, BV-173.
Type: functional, cell-based, Homo sapiens
Description: SANGER: Inhibition of human BV-173 cell growth in a cell viability assay.

| SMILES | IC50 [nM] |
| --- | --- |
| NC(=O)c1cccc(-c2cc(Nc3ccc(OC(F)(F)F)cc3)ncn2)c1 | 286 |

The compounds below were run on COLO-800 (assay: cells). Settings: Homo sapiens, COLO-800.
Type: functional, cell-based, Homo sapiens
Description: SANGER: Inhibition of human COLO-800 cell growth in a cell viability assay.

| SMILES | IC50 [nM] |
| --- | --- |
| NC(=O)c1cccc(-c2cc(Nc3ccc(OC(F)(F)F)cc3)ncn2)c1 | > 1280 |

What follows are compounds tested on EOL1 (assay: cells). Settings: Homo sapiens, EOL1.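 Also: growth inhibition of EoL-1 cells, read out by a cell viability assay.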
Type: functional, cell-based, Homo sapiens
Description: SANGER: Inhibition of human EoL-1-cell cell growth in a cell viability assay.

| SMILES | IC50 [nM] |
| --- | --- |
| NC(=O)c1cccc(-c2cc(Nc3ccc(OC(F)(F)F)cc3)ncn2)c1 | > 1280 |

These compounds were tested on ES7 (assay: cells). Settings: Homo sapiens, ES7.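 Also: growth inhibition of cultured human ES7 cells, read out as cell viability.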
Type: functional, cell-based, Homo sapiens
Description: SANGER: Inhibition of human ES7 cell growth in a cell viability assay.

| SMILES | IC50 [nM] |
| --- | --- |
| NC(=O)c1cccc(-c2cc(Nc3ccc(OC(F)(F)F)cc3)ncn2)c1 | > 1280 |

These compounds were tested on A101D (assay: cells). Settings: Homo sapiens, A101D.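 Also: growth inhibition of the cell line, measured with a viability assay.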
Type: functional, cell-based, Homo sapiens
Description: SANGER: Inhibition of human A101D cell growth in a cell viability assay.

| SMILES | IC50 [nM] |
| --- | --- |
| NC(=O)c1cccc(-c2cc(Nc3ccc(OC(F)(F)F)cc3)ncn2)c1 | > 1280 |

Each compound was assayed on NCI-H69 (assay: cells). Settings: Homo sapiens, NCI-H69.
Type: functional, cell-based, Homo sapiens
Description: SANGER: Inhibition of human NCI-H69 cell growth in a cell viability assay.

| SMILES | IC50 [nM] |
| --- | --- |
| NC(=O)c1cccc(-c2cc(Nc3ccc(OC(F)(F)F)cc3)ncn2)c1 | > 1280 |

These compounds were tested on U-87 MG (assay: cells). Settings: Homo sapiens, U-87 MG.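 Also: growth inhibition of the cells measured with a viability assay.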
Type: functional, cell-based, Homo sapiens, U-87MG ATCC
Description: SANGER: Inhibition of human U-87-MG cell growth in a cell viability assay.

| SMILES | IC50 [nM] |
| --- | --- |
| NC(=O)c1cccc(-c2cc(Nc3ccc(OC(F)(F)F)cc3)ncn2)c1 | > 1280 |

Each compound was assayed on LB1047-RCC (assay: cells). Settings: Homo sapiens, LB1047-RCC.
Type: functional, cell-based, Homo sapiens
Description: SANGER: Inhibition of human LB1047-RCC cell growth in a cell viability assay.

| SMILES | IC50 [nM] |
| --- | --- |
| NC(=O)c1cccc(-c2cc(Nc3ccc(OC(F)(F)F)cc3)ncn2)c1 | > 1280 |

Each compound was assayed on TE-8 (assay: cells). Settings: Homo sapiens, TE-8.
Type: functional, cell-based, Homo sapiens
Description: SANGER: Inhibition of human TE-8 cell growth in a cell viability assay.

| SMILES | IC50 [nM] |
| --- | --- |
| NC(=O)c1cccc(-c2cc(Nc3ccc(OC(F)(F)F)cc3)ncn2)c1 | > 1280 |

What follows are compounds tested on P30-OHK (assay: cells). Settings: Homo sapiens, P30-OHK.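 Also: growth inhibition of the P30-OHK cell line, read out with a cell viability assay.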
Type: functional, cell-based, Homo sapiens
Description: SANGER: Inhibition of human P30-OHK cell growth in a cell viability assay.

| SMILES | IC50 [nM] |
| --- | --- |
| NC(=O)c1cccc(-c2cc(Nc3ccc(OC(F)(F)F)cc3)ncn2)c1 | > 1280 |

What follows are compounds tested on ATN-1 (assay: cells). Settings: Homo sapiens, ATN-1.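 Also: growth inhibition of human ATN-1 cells, read out with a cell viability assay.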
Type: functional, cell-based, Homo sapiens
Description: SANGER: Inhibition of human ATN-1 cell growth in a cell viability assay.

| SMILES | IC50 [nM] |
| --- | --- |
| NC(=O)c1cccc(-c2cc(Nc3ccc(OC(F)(F)F)cc3)ncn2)c1 | > 1280 |

Each compound was assayed on NOMO-1 (assay: cells). Settings: Homo sapiens, NOMO-1.
Type: functional, cell-based, Homo sapiens
Description: SANGER: Inhibition of human NOMO-1 cell growth in a cell viability assay.

| SMILES | IC50 [nM] |
| --- | --- |
| NC(=O)c1cccc(-c2cc(Nc3ccc(OC(F)(F)F)cc3)ncn2)c1 | > 1280 |

Each compound was assayed on NCI-H1355 (assay: cells). Settings: Homo sapiens, NCI-H1355.
Type: functional, cell-based, Homo sapiens
Description: SANGER: Inhibition of human NCI-H1355 cell growth in a cell viability assay.

| SMILES | IC50 [nM] |
| --- | --- |
| NC(=O)c1cccc(-c2cc(Nc3ccc(OC(F)(F)F)cc3)ncn2)c1 | > 1280 |

These compounds were tested on HCC2218 (assay: cells). Settings: Homo sapiens, HCC2218.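 Also: cell viability assay read-out, with IC50 given as the concentration that inhibits growth of the cell line.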
Type: functional, cell-based, Homo sapiens
Description: SANGER: Inhibition of human HCC2218 cell growth in a cell viability assay.

| SMILES | IC50 [nM] |
| --- | --- |
| NC(=O)c1cccc(-c2cc(Nc3ccc(OC(F)(F)F)cc3)ncn2)c1 | > 1280 |

Each compound was assayed on ETK-1 (assay: cells). Settings: Homo sapiens, ETK-1.
Type: functional, cell-based, Homo sapiens
Description: SANGER: Inhibition of human ETK-1 cell growth in a cell viability assay.

| SMILES | IC50 [nM] |
| --- | --- |
| NC(=O)c1cccc(-c2cc(Nc3ccc(OC(F)(F)F)cc3)ncn2)c1 | > 1280 |

These compounds were tested on LNCaP-Clone-FGC (assay: cells). Settings: Homo sapiens, LNCaP-Clone-FGC.
Type: functional, cell-based, Homo sapiens
Description: SANGER: Inhibition of human LNCaP-Clone-FGC cell growth in a cell viability assay.

| SMILES | IC50 [nM] |
| --- | --- |
| NC(=O)c1cccc(-c2cc(Nc3ccc(OC(F)(F)F)cc3)ncn2)c1 | > 1280 |

Each compound was assayed on RH-1 (assay: cells). Settings: Homo sapiens, RH-1.
Type: functional, cell-based, Homo sapiens
Description: SANGER: Inhibition of human RH-1 cell growth in a cell viability assay.

| SMILES | IC50 [nM] |
| --- | --- |
| NC(=O)c1cccc(-c2cc(Nc3ccc(OC(F)(F)F)cc3)ncn2)c1 | > 1280 |

What follows are compounds tested on MSTO-211H (assay: cells). Settings: Homo sapiens, MSTO-211H.
Type: functional, cell-based, Homo sapiens
Description: SANGER: Inhibition of human MSTO-211H cell growth in a cell viability assay.

| SMILES | IC50 [nM] |
| --- | --- |
| NC(=O)c1cccc(-c2cc(Nc3ccc(OC(F)(F)F)cc3)ncn2)c1 | > 1280 |

Each compound was assayed on A4-Fuk (assay: cells). Settings: Homo sapiens, A4-Fuk.
Type: functional, cell-based, Homo sapiens
Description: SANGER: Inhibition of human A4-Fuk cell growth in a cell viability assay.

| SMILES | IC50 [nM] |
| --- | --- |
| NC(=O)c1cccc(-c2cc(Nc3ccc(OC(F)(F)F)cc3)ncn2)c1 | > 1280 |

These compounds were tested on RPMI-8226 (assay: cells). Settings: Homo sapiens, RPMI-8226.
Type: functional, cell-based, Homo sapiens
Description: SANGER: Inhibition of human RPMI-8226 cell growth in a cell viability assay.

| SMILES | IC50 [nM] |
| --- | --- |
| NC(=O)c1cccc(-c2cc(Nc3ccc(OC(F)(F)F)cc3)ncn2)c1 | > 1280 |

The compounds below were run on HEL (assay: cells). Settings: Homo sapiens, HEL.
Type: functional, cell-based, Homo sapiens
Description: SANGER: Inhibition of human HEL cell growth in a cell viability assay.

| SMILES | IC50 [nM] |
| --- | --- |
| NC(=O)c1cccc(-c2cc(Nc3ccc(OC(F)(F)F)cc3)ncn2)c1 | > 1280 |
